Results: patent publication US12716890B2, “Macro tissue explant, methods and uses therefor” (Massachusetts Institute of Technology, priority 2017, dated 2026)
Read-outs that look alike come from different tables or passages of the source. One block for each molecule: values may come before it. Numbered stars: 1 amine (or outer) side, 2 acyl side, 3 side chain; on linkers, the order of the positions; unused ones are H or OH. Bridge positions count the residues as written; N and C are the ends. Peptide text beside a SMILES is read from it. X1 = O=C(CCC[*:2])[*:1]

Columns and labels:
GLP-1 (7-36) = experiment: GLP-1 stimulation of intestinal tissue explant, ELISA of GLP-1 (7-36); format: cell-based, pigs; conditions: varying doses for 24 hours
Experimental: As determined in Example 1, the intestinal tissue explant comprises endocrine cells, determined by the expression of […] and Glucagon-like peptide-1 (GLP-1). Therefore, the ability of the intestinal tissue explant to respond to known GLP-1 stimulants was investigated. Specifically, acetylcholine, LiCl, and glucose were added to the intestinal tissue explant at varying doses for 24 hours, then cells within the apical side of the intestinal epithelium were isolated. The concentration of active cleaved peptide of GLP-1 (GLP-1 (7-36)) of these cell lysates was determined by ELISA analysis. […] The stimulation of GLP-1 secretion by acetylcholine, LiCl and glucose, which act through different pathways, indicated these pathways were intact in the intestinal tissue explant. The Acetylcholine and LiCl act as non-nutrient stimulators of GLP-1 that are reported to simulate GLP-1 activity via neuronal regulation. Glucose triggers GLP-1 activity via nutrient-based pathways.

[1] = system: intestinal tissue explant; format: in vitro ADME, pigs
Experimental: To assemble the intestinal tissue explant system, freshly isolated intestinal tissue from the jejunum was prepared according to the described tissue dissection procedure and mounted on the manufactured interface design with a generic 96 well plate as a receiver plate (Corning® 96 well plates, clear bottom, Corning) or a UV transparent plate (Corning® 96-well UV Plates, Corning). The jejunum was identified as the region of the small intestine approximately 50 cm after the pylorus. The difference between the jejunum and ileum was determined based on anatomical location, the structural differences of the tissue, differences in blood supply, and fat deposition as well as the presence of lymphoid tissue. For the system in 384-well format, a 384 microplate with glass bottom (Greiner Sensoplate™ glass bottom multiwall plates, Sigma) were used. The tissue was then cultured in this system according to the described cultivation protocol for specific ex vivo cultivation time periods. Intestinal perfusion experiments using the system were conducted only once after 24 hours of ex vivo cultivation unless otherwise noted.
For perfusion experiments the following set up was used: Formulation samples were prepared using a liquid handling station (Evo 150 liquid handling deck, Tecan), an automated dispenser (EL406 Combination Washer Dispenser, BioTek Instruments) was used to fill receiver 96 well plates, a microplate reader (Infinite® M1000 PRO, Tecan) was then used for spectrophotometric analysis. Specifically, formulation samples were prepared following a protocol to mix the pre-pared excipient plate 10 times, pipette the appropriate amount of excipient and dispense into a 96-well plate with the appropriate amount of compound already it in. The excipient/compound formulations were then mixed 60 times and then the appropriate amount was pipetted and dispensed onto the tissue explant. All experiments, including sample incubation, were performed at room temperature. […]

[2] = system: gastrointestinal tissue explants derived from either the esophagus, stomach or small intestine
[3] = Pharmacokinetic validation in vivo, formulation delivered to duodenum, oxytocin serum ELISA; conditions: female, Yorkshire, pig, po, pigs, formulation delivered directly to the duodenum, read-out: bioavailability of oxytocin (absolute / average oral)
Experimental: All animal procedures were conducted in accordance with protocols approved by the Massachusetts Institute of Technology Committee on Animal Care. For tissue experiments, fresh tissue was obtained from local abattoirs within 20 minutes of euthanization.
Pharmacokinetic validation was performed in vivo. Female Yorkshire pigs between 45 and 50 kg in weight were used. Before every experiment, the animals were fasted overnight and on the day of the procedure, the morning feed was held. The animals were sedated with an intramuscular injection of Telazol (tileramine/zolazepam) 5 mg/kg, xylazine 2 mg/kg and atropine 0.04 mg/kg. The duodenum was accessed endoscopically and the formulation directly delivered to the duodenum. Serial blood sampling from the peripheral veins was performed for quantification of oxytocin. For oxytocin serum quantification, an Oxytocin ELISA kit (Cat. no. ab133050, Abcam) was used according to the manufacturer's protocol. […] To investigate the mechanism of absorption enhancement and to analyze potential local effects of the formulation on the small intestine histologically, a surgical procedure coupled with custom-made devices was developed, that enabled controlled exposure of the formulation on a defined area of the intestinal tissue. E-cadherin stained sections of biopsy samples were used to analyze the disruption of cell-cell adhesions.

MDR-1 = molecular target: T1, MDR-1 (Sus scrofa, UniProt K7GMM7); experiment: Perfusion of substrate through siRNA-transfected intestinal tissue explant; format: in vitro ADME, pigs
T1 construct: from tissue; host or cells: pig small intestine explant, cultured ex vivo
T1 sequence (K7GMM7 1-1248): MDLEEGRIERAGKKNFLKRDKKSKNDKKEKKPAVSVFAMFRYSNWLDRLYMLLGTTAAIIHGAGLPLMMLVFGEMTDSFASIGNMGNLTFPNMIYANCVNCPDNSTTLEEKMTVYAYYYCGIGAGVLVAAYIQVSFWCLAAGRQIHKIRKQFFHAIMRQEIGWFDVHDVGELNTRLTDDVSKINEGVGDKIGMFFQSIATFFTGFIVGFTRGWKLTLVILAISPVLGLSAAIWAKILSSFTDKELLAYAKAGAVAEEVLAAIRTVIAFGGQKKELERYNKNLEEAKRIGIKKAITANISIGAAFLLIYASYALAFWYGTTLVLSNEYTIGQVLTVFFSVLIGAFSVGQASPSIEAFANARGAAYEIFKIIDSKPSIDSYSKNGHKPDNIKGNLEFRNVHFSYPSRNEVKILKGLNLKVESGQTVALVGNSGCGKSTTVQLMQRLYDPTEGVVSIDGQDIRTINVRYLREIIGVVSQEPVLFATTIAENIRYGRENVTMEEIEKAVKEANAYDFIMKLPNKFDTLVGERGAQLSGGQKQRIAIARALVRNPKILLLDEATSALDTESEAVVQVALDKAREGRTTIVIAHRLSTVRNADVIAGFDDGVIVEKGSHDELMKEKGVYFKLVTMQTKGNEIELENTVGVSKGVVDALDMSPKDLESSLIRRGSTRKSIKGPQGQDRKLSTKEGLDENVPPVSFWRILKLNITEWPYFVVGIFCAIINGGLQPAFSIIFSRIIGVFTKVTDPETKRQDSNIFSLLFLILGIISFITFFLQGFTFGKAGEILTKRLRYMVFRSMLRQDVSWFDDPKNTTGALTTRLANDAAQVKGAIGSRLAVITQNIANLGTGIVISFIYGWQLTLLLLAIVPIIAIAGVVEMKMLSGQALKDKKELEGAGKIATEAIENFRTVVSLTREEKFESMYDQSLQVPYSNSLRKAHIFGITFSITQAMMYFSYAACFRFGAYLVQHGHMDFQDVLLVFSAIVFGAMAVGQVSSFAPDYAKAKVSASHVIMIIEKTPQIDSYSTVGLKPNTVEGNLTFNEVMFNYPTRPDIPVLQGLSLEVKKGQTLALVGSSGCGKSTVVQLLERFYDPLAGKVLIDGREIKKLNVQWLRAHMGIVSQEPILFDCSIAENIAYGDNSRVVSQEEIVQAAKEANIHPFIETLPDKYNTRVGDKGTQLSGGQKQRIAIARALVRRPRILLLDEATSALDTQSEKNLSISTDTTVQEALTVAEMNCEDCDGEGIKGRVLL
Experimental: Specifically, siRNA was delivered to tissue explants using ultrasound by applying 5 second intervals for 1 minute for 40 kHz generated using a separate ultrasound generator (Sonics and Materials, Inc.) and a custom made 96 tip probe. The following siRNAs at concentrations of 1 μm in deionized water were used: Silencer® Select Pre-Designed siRNA (siRNA ID: s3846, Gene Symbol: CYP3A4), Silencer® Select Pre-Designed siRNA (siRNA ID: s10419, Gene Symbol: ABCB1), Silencer® Select Negative Control No. 1 siRNA.

Molecule: [Cl-].[Li+] [LiCl]
concentration of GLP-1 (7-36) in cell lysates (GLP-1 (7-36)): increased concentration so of GLP-1 (7-36) in a dose-dependent manner

intestinal absorption/perfusion of model drug formulated with polyethyleneimine (800 Da, end-capped) [1]: limited increase in intestinal perfusion
Molecule: CC[C@H](C)[C@@H]1NC(=O)[C@H](Cc2ccc(OC)cc2)NC(=O)CCCSC[C@@H](C(=O)N2CCC[C@H]2C(=O)N[C@@H](CC(C)C)C(=O)NCC(N)=O)NC(=O)[C@H](CC(N)=O)NC(=O)[C@H](CCC(N)=O)NC1=O [carbetocin] (Y(Me)IQNCPLG-NH2; linker N-5 via X1)

Molecule: CCO [ethanol]
tissue viability [2]: dose-dependent chemically induced decrease in tissue viability

Molecule: C=O [formalin]
tissue viability ([2]; 24 hours exposure, different concentrations in PBS, esophagus, stomach or small intestine explants): dose-dependent chemically induced decrease in tissue viability

Molecule: CO [methanol]
tissue viability [2]: dose-dependent chemically induced decrease in tissue viability

bioavailability [3]: 0.64%
Molecule: CC[C@H](C)[C@@H]1NC(=O)[C@H](Cc2ccc(O)cc2)NC(=O)[C@@H](N)CSSC[C@@H](C(=O)N2CCC[C@H]2C(=O)N[C@@H](CC(C)C)C(=O)NCC(N)=O)NC(=O)[C@H](CC(N)=O)NC(=O)[C@H](CCC(N)=O)NC1=O [oxytocin]

perfusion after knock-down of MDR-1 (MDR-1): significant change of perfusion
Molecule: CNC(=C[N+](=O)[O-])NCCSCc1ccc(CN(C)C)o1 [ranitidine]

Molecule: Alexa488-insulin: human insulin (recombinant) labeled with Alexa Fluor 488 NHS Ester
intestinal absorption/perfusion of model drug formulated with polyethyleneimine (800 Da, end-capped) [1]: increase the intestinal absorption to various degrees

Molecule: Polyethyleneimine [Polyethyleneimine (800 Da, end-capped)]
intestinal perfusion of oxytocin formulated with excipient [1]: increased the intestinal perfusion of oxytocin several fold
